Data on 42 molecules can be found in EP1345943B1, “INHIBITORS OF PAPILLOMA VIRUS” (BOEHRINGER INGELHEIM (CANADA) LTD., priority 2000, dated 2002).

This assay has as its target E1-E2-DNA complex (Human papillomavirus 11, UniProt P04015). Description: E2-dependent E1 DNA binding assay (E1-E2 DNA assay). The note with it: E1-E2 DNA assay of Example 11, HPV-11. The protocol: This particular assay determines the ability of a test compound to inhibit the activity (IC50) of HPV-11 DNA replication. More specifically, in the assay described herein, the inhibitory activity of the test compound is evaluated based on its ability to interfere with the E1-E2-DNA origin of replication interaction, thereby inhibiting initiation of viral DNA replication.
This assay was modeled on a similar assay for SV40 T Antigen described by McKay (J. Mol. Biol., 1981,145:471). A 400bp radiolabeled DNA probe, containing the -HPV-11 origin of replication (Chiang et al.., 1992, Proc. Natl.-Acad. Sci. USA 89:5799) was produced by pcr, using plasmid pBluescript™ SK encoding the origin (nucleotides 7886-61 of the HPV-11 genome in unique BAMH1 site) as template and primers flanking the origin. Radiolabel was incorporated as [33p]dCTP. Binding assay buffer consisted of: 20 mM Tris pH 7.6, 100 mM NaCI, 1 mM DTT, 1 mM EDTA.
Other reagents used were protein A-SPA beads (type II, Amersham) and K72 rabbit polyclonal antiserum, raised against a peptide corresponding to the C-terminal 14 amino acids of HPV-11 E1. Following the protocol from Amersham, one bottle of beads was mixed with 25 mL of binding assay buffer. For the assay, a saturating amount of K72 antiserum was added to the beads and the mixture was incubated for 1 h, washed with one volume of binding assay buffer, and then resuspended in the same volume of fresh binding assay buffer. Binding reactions contained 8 ng of E2, approximately 100-200 ng of purified E1, and 0.4 ng of radiolabeled probe in a total of 80 µL of binding assay buffer. After 1 h at room temperature, 25 µL of K72 antibody-SPA bead suspension was added to with the binding reaction and mixed. After an additional hour of incubation at room temperature, the reactions were centrifuged briefly to pellet the beads and the extent of complex formation was determined by scintillation counting on a Packard TopCount™. Typically, the signal for reactions containing E1 and E2 was 20-30 fold higher than the background observed when either E1, E2, or both was omitted.

As a reminder, the IC50 is the point on the concentration scale where inhibition reaches its midpoint. Read a high IC50 as weaker potency.

Chain of E1-E2-DNA complex (P04015 whole entry, one chain of several): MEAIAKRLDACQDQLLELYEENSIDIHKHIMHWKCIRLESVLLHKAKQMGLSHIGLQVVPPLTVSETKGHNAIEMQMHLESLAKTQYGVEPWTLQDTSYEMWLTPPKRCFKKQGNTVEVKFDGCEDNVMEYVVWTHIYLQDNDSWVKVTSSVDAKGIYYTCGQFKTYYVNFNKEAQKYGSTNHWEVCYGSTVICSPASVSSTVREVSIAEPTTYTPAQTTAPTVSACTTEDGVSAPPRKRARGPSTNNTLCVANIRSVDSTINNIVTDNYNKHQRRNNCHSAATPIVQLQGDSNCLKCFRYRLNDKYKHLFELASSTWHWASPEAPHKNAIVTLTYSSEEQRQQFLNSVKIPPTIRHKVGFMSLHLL

In turn, `Cc1cc2c(cc1F)C(=O)C1(OC(c3ccc(Br)c(Br)c3)C(C(=O)Nc3ccc(N4CCOCC4)cc3)C1C(=O)O)C2=O` (single isomer, unassigned) [Compound A1015] showed an IC50 of less than 0.5 µM.
Turning to `O=C(Nc1ccc(Cl)cc1)C1C(c2ccc(Br)c(Br)c2)OC2(C(=O)c3ccccc3C2=O)C1C(=O)O` (stereo not drawn) [Compound 1110], the IC50 was less than 0.5 µM.
Then `O=C(Nc1ccc2c(c1)OCO2)C1C(c2ccc(Cl)cc2)OC2(C(=O)c3ccccc3C2=O)C1C(=O)O` (stereo not drawn) [Compound 1001], with 5 to 50 µM; and `CC(=O)c1ccc(NC(=O)C2C(C(C)=Cc3ccccc3)OC3(C(=O)c4ccccc4C3=O)C2C(=O)O)cc1` (racemic) [Compound 4009], with 5 to 50 µM; and `N#Cc1cccc(C2OC3(C(=O)c4ccccc4C3=O)C(C(=O)O)C2C(=O)Nc2ccc(N3CCOCC3)cc2)c1` (stereo not drawn) [Compound 1085], with 5 to 50 µM.
In the case of `O=C1C2C(c3ccc(Cl)cc3)OC3(C(=O)c4ccccc4C3=O)C2C(=O)N1c1ccc2c(c1)CCC2` (stereo not drawn) [Compound 2012], the IC50 is 5 to 50 µM.
`CC(C)(C)c1ccc(NC(=O)C2C(c3ccc(Cl)c(Cl)c3)OC3(C(=O)c4ccccc4C3=O)C2C(=O)O)cc1` (stereo not drawn) [Compound 1025]: the half-maximal inhibitory concentration (IC50) lay within 0.5 to 5 µM.
The molecule `CCOc1ccccc1NC(=O)C1C(c2ccc(Cl)c(Cl)c2)OC2(C(=O)c3ccccc3C2=O)C1C(=O)O` (stereo not drawn) [Compound 1136] had a half-maximal inhibitory concentration (IC50) of 5 to 50 µM.
Then `Cc1ccc(NC(=O)C2C(c3ccc(Cl)cc3)OC3(C(=O)c4ccccc4C3=O)C2C(=O)O)cc1` (stereo not drawn) [Compound 1007], with 5 to 50 µM; and `Cc1ccc2c(c1)C(=O)C13OC(c4ccc(Br)c(Br)c4)C(C(=O)Nc4ccc(N5CCOCC5)cc4)C1C(=O)OC23O` (single isomer, unassigned) [Compound B1002], with less than 0.5 µM.
On to `O=C(Nc1ccc(Br)c(Cl)c1)C1C(c2ccc(F)c(Cl)c2)OC2(C(=O)c3ccccc3C2=O)C1C(=O)O` (stereo not drawn) [Compound 1121], for which the IC50 is 0.5 to 5 µM.
As for `O=C(Nc1cc(F)cc(F)c1)C1C(c2ccc(Cl)c(Cl)c2)OC2(C(=O)c3ccccc3C2=O)C1C(=O)O` (stereo not drawn) [Compound 1096], the IC50 is 0.5 to 5 µM.
Regarding `CC(C)NC(=O)C1C(c2ccc(Cl)c(Cl)c2)OC2(C(=O)c3ccccc3C2=O)C1C(=O)O` (stereo not drawn) [Compound 1036], the IC50 fell in the range of 0.5 to 5 µM.
As for `O=C(Nc1ccc(F)c(F)c1)C1C(c2ccc(Br)c(Br)c2)OC2(C(=O)c3ccccc3C2=O)C1C(=O)O` (stereo not drawn) [Compound 1105], the IC50 fell in the range of 0.5 to 5 µM.
`COc1cccc(C2OC3(C(=O)c4ccccc4C3=O)C(C(=O)O)C2C(=O)Nc2ccc3c(c2)OCO3)c1` (racemic) [Compound 1023] had an IC50 of 5 to 50 µM.
`O=C(Nc1ccc2c(c1)OCO2)C1C(c2ccc3c(c2)OCO3)OC2(C(=O)c3ccccc3C2=O)C1C(=O)O` (stereo not drawn) [Compound 4003] had an IC50 of 5 to 50 µM.
Then `O=C(Nc1ccc2c(c1)CCC2)C1C(c2ccc(Cl)cc2)OC2(C(=O)c3ccccc3C2=O)C1C(=O)O` (stereo not drawn) [Compound 1013], with 5 to 50 µM; and `CCc1ccc(NC(=O)C2C(c3ccc(Cl)c(Cl)c3)OC3(C(=O)c4ccccc4C3=O)C2C(=O)O)cc1` (stereo not drawn) [Compound 1055], with 0.5 to 5 µM.
Then `O=C(Nc1ccc(C(F)(F)F)cc1)C1C(c2ccc(Cl)cc2)OC2(C(=O)c3ccccc3C2=O)C1C(=O)O` (stereo not drawn) [Compound 1014], with 5 to 50 µM.
In the case of `O=C(Nc1ccc(OC(F)(F)F)cc1)C1C(c2ccc(Br)c(Br)c2)OC2(C(=O)c3ccccc3C2=O)C1C(=O)O` (stereo not drawn) [Compound 1118], the IC50 was 0.5 to 5 µM.
Then `Cc1cccc2c1C(=O)C1(OC(c3ccc(Cl)c(Cl)c3)C(C(=O)Nc3ccc4c(c3)OCO4)C1C(=O)O)C2=O` (stereo not drawn) [Compound 1042], with 0.5 to 5 µM; and `CN(CCN(C)c1ccc([N+](=O)[O-])c2nonc12)C(=O)CNCc1ccc(NC(=O)C2C(c3ccc(Cl)c(Cl)c3)OC3(C(=O)c4ccccc4C3=O)C2C(=O)O)cc1` (stereo not drawn) [Compound 1140], with 0.5 to 5 µM.
In the case of `O=C(Nc1ccccc1Br)C1C(c2cc(Cl)cc(Cl)c2)OC2(C(=O)c3ccccc3C2=O)C1C(=O)O` (stereo not drawn) [Compound 1142], the IC50 was less than 0.5 µM.
`O=C(Nc1ccc(N2CCOCC2)cc1)C1C(c2ccc(F)c(F)c2)OC2(C(=O)c3ccccc3C2=O)C1C(=O)O` (stereo not drawn) [Compound 1059] registered a half-inhibitory concentration (IC50) of 0.5 to 5 µM.
As to `CC(=O)Nc1ccc(NC(=O)C2C(c3ccc(Cl)c(Cl)c3)OC3(C(=O)c4ccccc4C3=O)C2C(=O)O)cc1` (stereo not drawn) [Compound 1108], the IC50 lay in the range of 0.5 to 5 µM.
As to `Cc1ccc2c(c1)C1(O)OC(=O)C3C(C(=O)NCCc4ccccc4Cl)C(c4ccc(Br)c(Br)c4)OC31C2=O` (single isomer, unassigned) [Compound B1007], the IC50 was less than 0.5 µM.
Consider `O=C(NN1CCOCC1)C1C(c2ccc(Cl)c(Cl)c2)OC2(C(=O)c3ccccc3C2=O)C1C(=O)O` (stereo not drawn) [Compound 1043], for which the IC50 was in the range of 0.5 to 5 µM.
For `O=C(NCCc1ccccc1)C1C(c2ccc(Cl)c(Cl)c2)OC2(C(=O)c3ccccc3C2=O)C1C(=O)O` (racemic) [Compound 1077], the IC50 was less than 0.5 µM.
Molecule `CC(=O)c1ccc(NC(=O)C2C(c3ccc(Cl)c(Cl)c3)OC34C(=O)c5sc(C)cc5C3(O)OC(=O)C24)cc1` (stereo not drawn) [Compound C1001] came in with an IC50 of 5 to 50 µM.
Then `O=C(Nc1ccc2c(c1)OCO2)C1C(c2ccc(Cl)c(Cl)c2)OC2(C(=O)c3cccc(F)c3C2=O)C1C(=O)O` (stereo not drawn) [Compound 1051], with 0.5 to 5 µM; and `O=C(Nc1ccccc1)C1C(c2ccc(F)c(F)c2)OC2(C(=O)c3ccccc3C2=O)C1C(=O)O` (stereo not drawn) [Compound 1068], with 5 to 50 µM; and `O=C(NC1Cc2ccccc2C1)C1C(c2ccc(Cl)c(Cl)c2)OC2(C(=O)c3ccccc3C2=O)C1C(=O)O` (stereo not drawn) [Compound 1098], with 0.5 to 5 µM.
The molecule `O=C1C2C(c3ccc(Cl)c(Cl)c3)OC3(C(=O)c4ccccc4C3=O)C2C(=O)N1c1ccc2c(c1)OCO2` (racemic) [Compound 2013] yielded an IC50 of 0.5 to 5 µM.
`O=C(Nc1ccc(Cl)c(Cl)c1)C1C(c2ccc(Br)c(Br)c2)OC2(C(=O)c3ccccc3C2=O)C1C(=O)O` (stereo not drawn) [Compound 1134] showed an IC50 of less than 0.5 µM.
`O=C(NCc1ccccc1)C1C(c2ccc(Cl)cc2)OC23C(=O)c4ccccc4C2(O)OC(=O)C13` (racemic) [Compound 3003] gave an IC50 of 5 to 50 µM.
Next, `CSc1ccc(NC(=O)C2C(c3ccc(Cl)c(Cl)c3)OC3(C(=O)c4ccccc4C3=O)C2C(=O)O)cc1` (stereo not drawn) [Compound 1033]: 0.5 to 5 µM; `COc1ccc2c(c1)C(=O)C1(OC(c3ccc(Cl)c(Cl)c3)C(C(=O)Nc3ccc(C(C)=O)cc3)C1C(=O)O)C2=O` (stereo not drawn) [Compound 1129]: 5 to 50 µM.
Next, `O=C(Nc1cc2c(cc1[N+](=O)[O-])OCO2)C1C(c2ccc(Cl)c(Cl)c2)OC2(C(=O)c3ccccc3C2=O)C1C(=O)O` (stereo not drawn) [Compound 1117]: 0.5 to 5 µM.
Then `O=C(Nc1ccc(-c2csnn2)cc1)C1C(c2ccc(Br)c(Br)c2)OC2(C(=O)c3ccccc3C2=O)C1C(=O)O` (single isomer, unassigned) [Compound A1001], with 5 to 50 µM.
Consider `CC(=O)c1ccc(NC(=O)C2C(c3ccc(F)c(F)c3)OC3(C(=O)c4ccccc4C3=O)C2C(=O)O)cc1` (stereo not drawn) [Compound 1064], for which the IC50 lay in the range of 5 to 50 µM.
Turning to `O=C(Nc1ccc2c(c1)OCO2)C1C(c2ccc3ccccc3c2)OC2(C(=O)c3ccccc3C2=O)C1C(=O)O` (stereo not drawn) [Compound 4001], the IC50 was in the range of 0.5 to 5 µM.
Next, `CC(=O)c1ccc(NC(=O)C2C(C=C(C)c3ccccc3)OC3(C(=O)c4ccccc4C3=O)C2C(=O)O)cc1` (racemic) [Compound 4008]: 5 to 50 µM.
